Data reported in patent US8470765B2, “Polypeptides and antibacterial or antiseptic use of same” (AnGes MG, Inc., priority 2009, dated 2013).
Values after ≈ are worked out from the molar mass of the structure shown. Like-named read-outs stand apart in the source and are kept apart here. No end group written: not given here.

How the values were obtained:
[1] = test system: methicillin-resistant Staphylococcus (MRSA) MRSA(i); assay: organism not typed; settings: read-out: MIC MRSA(i)
Protocol: (§1) Bacteria (Escherichia coli ATCC 25922, Pseudomonas aeruginosa ATCC 27853, Staphylococcus aureus ATCC29213, Klebsiella pneumoniae JCM 1662, Enterobacter cloacae JCM 1232, Enterobacter aerogenes JCM 1235 and Staphylococcus epidermidis JCM 2414) were inoculated to Mueller-Hinton broth: MHB or LB medium, and cultured at a temperature and period suited for each strain. From the thus obtained colonies, each strain was inoculated to a fresh liquid medium and cultured for 16 to 20 hours. Then an aliquot having a volume (10 to 50 appropriate to each strain was inoculated to a fresh liquid medium and cultured for 4 to 6 hours, followed by the measurement of the absorbance at 600 nm. After comparing the turbidity with McFarland #0.5, the resultant was diluted with a medium. Each strain was added to about 10^5 CFU/mL (final concentration).
(§2) Further, the antibacterial activities against the clinical strains collected and isolated from infected patients were also examined. The tests were carried out for two methicillin-resistant Staphylococcus (MRSA) (MRSA (i) and (ii)), two methicillin-sensitive Staphylococcus (MSSA) (MSSA (i) and (ii)), five Pseudomonas aeruginosa, Pseudomonas aeruginosa 1, Pseudomonas aeruginosa 6, Pseudomonas aeruginosa 8. Pseudomonas aeruginosa 9 and Pseudomonas aeruginosa 12, totally 9 clinical strains. The MRSA and MSSA clinical strains were tested by the same method as Staphylococcus aureus ATCC29213, and Pseudomonas clinical strains were tested by the same method as Pseudomonas aeruginosa ATCC 27853.
(§3) Each of the peptide solutions to be tested was diluted with MHB to obtain a solution of 128 μg/mL. This solution was serially diluted with the medium to prepare peptide-containing media having concentrations of 128, 64, 32, 16, 8.0, 4.0 and 2.0 μg/mL respectively. […] By dilution with sterilized purified water to 1.0 mg/mL, positive control-containing media having concentrations of 16, 8, 4, 2, 1.0, 0.25, 0.12 and 0.06 μg/mL, respectively for TOB; 0.5, 0.12 and 0.06 μg/mL, respectively, for OX; and 16, 8, 4, 2, 1.0, 0.25, 0.12, 0.06, 0.06, 0.03 and 0.008 μg/mL, respectively, for MEPM, were prepared.
(§4) To a 96-well microtiter plate, 0.1 mL of the inoculation solution and 0.1 mL of the peptide- or positive control-containing medium having the respective concentration were added, and cultured at 37° C. for 16 to 24 hours (or a time period suited for the growth of the respective strain). The well not containing the sample was used as a negative control. After the culturing, the growth was visually observed, and the minimum concentration at which the growth was inhibited was defined as the minimum growth inhibition concentration (MIC).
(§5) The medium used in this test for bacteria was Mueller-Hinton broth. Independent experiments were carried out twice or more for each strain.

[2] = test system: methicillin-resistant Staphylococcus (MRSA) MRSA(ii); assay: organism not typed; settings: read-out: MIC MRSA(ii)
Protocol: as §1, §2, §3, §4, §5

[3] = test system: methicillin-sensitive Staphylococcus (MSSA) MSSA(i); assay: organism not typed; settings: read-out: MIC MSSA(i)
Protocol: as §1, §2, §3, §4, §5

[4] = test system: methicillin-sensitive Staphylococcus (MSSA) MSSA(ii); assay: organism not typed; settings: read-out: MIC MSSA(ii)
Protocol: as §1, §2, §3, §4, §5

[5] = test system: Staphylococcus epidermidis JCM 2414; assay: microbe, parasite or virus in culture; type: cell-based; settings: for MIC Staphylococcus epidermidis: JCM 2414
Protocol: (§6) Bacteria (Escherichia coli ATCC 25922, Pseudomonas aeruginosa ATCC 27853, Staphylococcus aureus ATCC29213, Klebsiella pneumoniae JCM 1662, Enterobacter cloacae JCM 1232, Enterobacter aerogenes JCM 1235 and Staphylococcus epidermidis JCM 2414) were inoculated to Mueller-Hinton broth: MHB or LB medium, and cultured at a temperature and period suited for each strain. From the thus obtained colonies, each strain was inoculated to a fresh liquid medium and cultured for 16 to 20 hours. Then an aliquot having a volume (10 to 50 appropriate to each strain was inoculated to a fresh liquid medium and cultured for 4 to 6 hours, followed by the measurement of the absorbance at 600 nm. After comparing the turbidity with McFarland #0.5, the resultant was diluted with a medium. Each strain was added to about 10^5 CFU/mL (final concentration). Each of the peptide solutions to be tested was diluted with MHB to obtain a solution of 128 μg/mL. […] As controls, tobramycin (TOB: aminoglucoside antibiotic), oxacillin (OX:β-lactam antibiotic), meropenem (MEPM: carbapenem antibiotic) and ciprofloxacin (new quinolone antibiotic) were used. […] To a 96-well microtiter plate, 0.1 mL of the inoculation solution and 0.1 mL of the peptide- or positive control-containing medium having the respective concentration were added, and cultured at 37° C. for 16 to 24 hours (or a time period suited for the growth of the respective strain). The well not containing the sample was used as a negative control. After the culturing, the growth was visually observed, and the minimum concentration at which the growth was inhibited was defined as the minimum growth inhibition concentration (MIC). The medium used in this test for bacteria was Mueller-Hinton broth. Independent experiments were carried out twice or more for each strain.

[6] = test system: Staphylococcus aureus ATCC29213; assay: microbe, parasite or virus in culture; type: cell-based
Protocol: as §6

[7] = test system: Escherichia coli ATCC 25922; assay: ATP Assay (viability at 3 hours), Table 6; type: cell-based; settings: for Escherichia coli ATP (viability, relative value to negative control): 3 h, 5 μg/mL
Protocol: as §1, with “ATCC29213,” for “ATCC29213, Klebsiella pneumoniae JCM 1662, Enterobacter cloacae JCM 1232, Enterobacter aerogenes JCM 1235”, “50 μL)” for “50”
(§7) Each of the peptide solutions to be tested was diluted with the medium to obtain a solution of 10 μg/mL. As positive controls, tobramycin (TOB), oxacillin (OX) and meropenem (MEPM) were used. By dilution with sterilized purified water to 1.0 mg/mL, positive control-containing media having concentrations of […], respectively for TOB; 0.5, 0.12 and 0.06 μg/mL, respectively, for OX; and 1.0, 0.25, 0.12, 0.06, 0.03 and 0.008 μg/mL respectively, for MEPM, were prepared. To a 96-well microtiter plate, 0.1 mL of the inoculation solution and 0.1 mL of the peptide- or positive control-containing medium having the respective concentration were added, and cultured at 37° C. for 3 hours. The well not containing the sample was used as a negative control. After the culturing, ATP was measured using BacTiter-Glo Microbial Cell Viability Assay kit of PROMEGA, and compared with that in the negative control to obtain a relative value which was defined as a viability. The antibacterial activity was evaluated based on the viability at 3 hours later using ATP as an index.
(§8) The medium used in this test for bacteria was Mueller-Hinton broth. Independent experiments were carried out twice for each strain.

[8] = test system: Staphylococcus aureus ATCC29213; assay: ATP Assay (viability at 3 hours), Table 6; type: cell-based; settings: for Staphylococcus aureus ATP (viability, relative value to negative control): 3 h, 5 μg/mL
Protocol: as §1, with “ATCC29213,” for “ATCC29213, Klebsiella pneumoniae JCM 1662, Enterobacter cloacae JCM 1232, Enterobacter aerogenes JCM 1235”, “50 μL)” for “50”
as §7, §8

[9] = test system: Pseudomonas aeruginosa ATCC 27853; assay: ATP Assay (viability at 3 hours), Table 6; type: cell-based; settings: for Pseudomonas aeruginosa ATP (viability, relative value to negative control): 3 h, 5 μg/mL
Protocol: as §1, with “ATCC29213,” for “ATCC29213, Klebsiella pneumoniae JCM 1662, Enterobacter cloacae JCM 1232, Enterobacter aerogenes JCM 1235”, “50 μL)” for “50”
as §7, §8

[10] = test system: Escherichia coli ATCC 25922; assay: microbe, parasite or virus in culture; type: cell-based; settings: Table 4; two tests, first/second value where not identical
Protocol: as §6

[11] = test system: Pseudomonas aeruginosa ATCC 27853; assay: microbe, parasite or virus in culture; type: cell-based
Protocol: as §6

[12] = test system: Trichophyton mentagrophytes NBRC6124; settings: NBRC6124
[13] = test system: Alternaria alternata JCM5800
[14] = test system: Bacillus subtilis NBRC3134; settings: NBRC3134
[15] = test system: Trichophyton rubrum NBRC9185; settings: NBRC9185
[16] = test system: Acinetobacter baumanni JCM6841; settings: JCM6841
[17] = test system: Fusobacterium nucleatum JCM 11025
[18] = test system: Actinobacillus actinomycetemcomitans JCM2434
[19] = test system: Micrococcus luteus NBRC13867
[20] = test system: Bacteroides fragilis JCM 11019
[21] = test system: Salmonella typhimurium JCM1652
[22] = test system: Salmonella enteritidis IID 604; settings: IID 604
Fusarium solani JCM11383 = settings: JCM11383
[23] = test system: Streptococcus pyogenes JCM5674
[24] = Table 4, two tests, first/second value where not identical

| Molecule | MIC Escherichia coli [10] | MIC Staphylococcus epidermidis [5] [µg/mL] | MIC Staphylococcus aureus [6, 24] | MIC Pseudomonas aeruginosa [11, 24] | Escherichia coli ATP (viability, relative value to negative control) [7] | Staphylococcus aureus ATP (viability, relative value to negative control) [8] | Pseudomonas aeruginosa ATP (viability, relative value to negative control) [9] | MIC Trichophyton mentagrophytes [12] [µg/mL] | MIC Alternaria alternata ([13]; JCM5800) [µg/mL] | MIC Bacillus subtilis [14] [µg/mL] | MIC Trichophyton rubrum [15] [µg/mL] | MIC Acinetobacter baumanni [16] [µg/mL] | MIC Actinobacillus actinomycetemcomitans [18] [µg/mL] | MIC Micrococcus luteus [19] [µg/mL] | MIC Bacteroides fragilis [20, 24] | MIC Salmonella Enteritidis [22] [µg/mL] | MIC Fusarium solani (Fusarium solani JCM11383) [µg/mL] | MIC Streptococcus pyogenes [23] [µg/mL] | MIC Candida krusei (Candida krusei NBRC1395; NBRC1395) [µg/mL] | MIC Fusobacterium nucleatum ([17]; JCM 11025) [µg/mL] | other results |
| --- | --- | --- | --- | --- | --- | --- | --- | --- | --- | --- | --- | --- | --- | --- | --- | --- | --- | --- | --- | --- | --- |
| Cc1onc(-c2ccccc2)c1C(=O)N[C@@H]1C(=O)N2[C@@H]1SC(C)(C)[C@@H]2C(=O)O [oxacillin, reference compound] | – | – | – | – | – | – | – | – | – | – | – | – | – | – | – | – | – | – | – | – | MIC [1]: < 4000 µg/mL; MIC [2]: > 8000 µg/mL; MIC [3]: 8 µg/mL (≈ 19.9 µM); MIC [4]: 2 µg/mL (≈ 4.98 µM); MIC ([5]; Staphylococcus epidermidis, JCM2414, read-out: MIC Staphylococcus epidermidis, Table 4, two tests, first/second value where not identical): 0.15 to 0.5 µg/mL (≈ 0.374 to 1.25 µM); MIC ([6]; Staphylococcus aureus, ATCC29213, read-out: MIC Staphylococcus aureus, Table 4, two tests, first/second value where not identical): 0.15 to 0.5 µg/mL (≈ 0.374 to 1.25 µM); viability at 10 µg/mL ([7]; ATCC25922, 3 h, read-out: Escherichia coli ATP (viability, relative value to negative control)): 142%; viability at 10 µg/mL ([8]; ATCC29213, 3 h, read-out: Staphylococcus aureus ATP (viability, relative value to negative control)): 121%; viability at 10 µg/mL ([9]; ATCC27853, 3 h, read-out: Pseudomonas aeruginosa ATP (viability, relative value to negative control)): 100% |
| Ac-GRLKRMGKRLKRKIQKWARW-NH2 [SRP-18] | 8/16 | 8 | 8/16 | 4/8 | 1.7 | 2.0 | 1.5 | 16 | 32 | 2 | 32 | 32 | 64 | 1 | 64/32 | 2 | 8 | 16 | – | – | MIC Candida krusei (Candida krusei NBRC1395; [24]): 32/16; MIC Fusobacterium nucleatum [17, 24]: 32/16; MIC Salmonella Typhimurium [21, 24]: 4/2 |
| Ac-KLIFLRELRRLRKRLKRKLR-NH2 [SRP-20] | 8/16 | 8000 to 16000 | – | 8/16 | 6.2 | 3.2 | 1.1 | 16 | – | 2 | 32 | 16 | 128 | 2 | 8/16 | 4 | 4 | 32 | 16 | 4 | MIC Staphylococcus aureus ([6]; ATCC29213): 16 µg/mL; MIC Alternaria alternata [13, 24]: 32/64; MIC Salmonella Typhimurium ([21]; JCM1652): 4 µg/mL |
| GRLKRMGERLKRKIQKLIRL-NH2 [SRP-21] | 16/32 | 8000 to 16000 | 8/32 | – | 3.7 | 1.8 | 3.8 | 64 | 64 | 2 | 128 | 32 | 32 | 1 | – | 2 | 16 | 8 | 32 | 4 | MIC Pseudomonas aeruginosa ([11]; ATCC 27853): 8 µg/mL; MIC Bacteroides fragilis ([20]; JCM 11019): 16 µg/mL; MIC Salmonella Typhimurium ([21]; JCM1652): 2 µg/mL |
